“Also recorded” adds a separate entry of the source.
What was measured:
IL-2 production = test: Inhibition of IL-2 production in PHA-activated Jurkat cells (ELISA); format: cell-based; conditions: Homo sapiens, PHA 2.5 μg/mL, 20 hours, IL-2 ELISA
[1] = test system: Delayed-Type Hypersensitivity (DTH) reaction; test: Inhibition of delayed-type hypersensitivity (DTH) reaction in rats; format: in vivo, Lewis rats; conditions: rat DTH
Procedure: Lewis rats (n=7 each group) were sensitized with chicken ovalbumin (OVA; Sigma, A5503) and complete Freund's adjuvant (CFA; Sigma F5881) was injected into tail base by s.c. on day 0. On day 7, the animals were challenged with ovalbumin (OVA) on their right ears.
Compounds 1 and 10 were prepared in vehicle solution (20% Vitamin E TPGS and 80% PEG-8).
Female Lewis rats, 6-8 weeks of age, were obtained from Charles River Laboratories and permitted to acclimate for one week prior to experimental procedures. Rodents were allowed water and food ad libitum. Animals were housed in accordance with the Institutional Animal Care and Use Committee (IACUC), and experiments were performed in compliance with IACUC guidelines.
Rat ears were measured with a dial thickness gauge (Mitutoyo gauge #8, Mitutoyo, USA). The swelling response was calculated by subtracting the ear thickness before challenge (baseline) from that of the same ear after challenge. To measure the ear weight, both left and right ears of euthanized rats were punched out with cork holer, the ear weight change was calculated by subtracting the saline-treated left ear weight from that of the OVA-challenged right ear weight.
Delayed-type hypersensitivity is an in vivo T cell-dependent immune response manifested as an inflammatory reaction that reaches peak intensity 24 hr after OVA challenge. To determine the immunosuppressive effect of Compounds 1 and 10 in the rat DTH reaction, groups of rats (n=7) were administered with either vehicle, Compound 1 or Compound 10, orally three times, starting 2 hr before ear challenge, and 3 and 9 hr after ear challenge.

[2] = 15 mg/kg orally at −2, +3, +9 hr, 24 hr after OVA challenge, relative to vehicle-treated group

IC50 (IL-2 production): 12 nM
SMILES: COc1ccc2c(c1)nc(C(F)(F)F)n2-c1cnc(NC(=O)c2ccccc2C)cn1 [Compound 10, N-[5-(5-Methoxy-2-trifluoromethyl-benzoimidazol-1-yl)-pyrazin-2-yl]-2-methyl-benzamide]
Inhibition of gross change (%) Ear thickness (mm) [1, 2]: 15%
Inhibition of gross change (%) Ear weight (mg) [1, 2]: 24%
effect on ear weight after ovalbumin challenge ([1]; compared to vehicle alone, FIGS. 1 and 2): even stronger effect on reducing ear thickness and weight after challenge than Compound 1; also recorded: reduced ear thickness and weight after challenge more than dosing with cyclosporine A
effect on ear thickness after ovalbumin challenge ([1]; compared to vehicle alone, FIGS. 3 and 4): even stronger effect on reducing ear thickness and weight after challenge than Compound 1; also recorded: reduced ear thickness and weight after challenge more than dosing with cyclosporine A

From US8119643B2, “Benzoimidazolyl-pyrazine compounds for inflammation and immune-related uses” (Synta Pharmaceuticals Corp., priority 2006, dated 2012)
